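Values below derive from 48-hour exposures of cells grown in 96-well plates, with endpoints linearly interpolated between the two concentrations bracketing the appropriate inhibition level. The concentration for 50% growth inhibition is given as GI50.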 The source made the active and inactive calls. Cut-off read from the data, not from the text of the source: active = GI50 up to about 1.1 µM and inactive = higher.
How the values were obtained:
Test in all cases: inhibition of tumour cell growth, NCI panel, 48 h
OVCAR-3 = system: OVCAR-3
PC-3 = system: PC-3
OVCAR-8 = system: OVCAR-8
CCRF-CEM = system: CCRF-CEM
NCI-H226 = system: NCI-H226
MCF7 = system: MCF7
K562 = system: K562
SR = system: SR
SK-MEL-2 = system: SK-MEL-2
SK-MEL-28 = system: SK-MEL-28
HCT-116 = system: HCT-116
BT-549 = system: BT-549
LOX IMVI = system: LOX IMVI
Hs-578T = system: Hs-578T
EKVX = system: EKVX
SW-620 = system: SW-620
U-251 = system: U-251
ACHN = system: ACHN
T47D = system: T47D
SF-268 = system: SF-268

| SMILES | GI50 (OVCAR-3) | GI50 (PC-3) | GI50 (OVCAR-8) | GI50 (CCRF-CEM) | GI50 (NCI-H226) | GI50 (MCF7) | GI50 (K562) | GI50 (SR) | GI50 (SK-MEL-2) | GI50 (SK-MEL-28) | GI50 (HCT-116) | GI50 (BT-549) | GI50 (LOX IMVI) | GI50 (Hs-578T) | GI50 (EKVX) | GI50 (SW-620) | GI50 (U-251) | GI50 (ACHN) | GI50 (T47D) | GI50 (SF-268) |
| --- | --- | --- | --- | --- | --- | --- | --- | --- | --- | --- | --- | --- | --- | --- | --- | --- | --- | --- | --- | --- |
| O=c1n(CCCN2CCN(c3cccc(Cl)c3)CC2)nc2n1-c1ccc3ccccc3c1SC2 | > 100 µM (inactive) | > 100 µM (inactive) | > 100 µM (inactive) | > 100 µM (inactive) | > 100 µM (inactive) | > 100 µM (inactive) | > 100 µM (inactive) | > 100 µM (inactive) | > 100 µM (inactive) | > 100 µM (inactive) | 9.46 µM (inactive) | > 100 µM (inactive) | > 100 µM (inactive) | > 100 µM (inactive) | 99.3 µM (inactive) | > 100 µM (inactive) | > 100 µM (inactive) |  |  |  |
| O=C1c2ccccc2C(=O)N1CC1S(=O)(=O)OCCOS1(=O)=O | > 100 µM (inactive) | > 100 µM (inactive) | > 100 µM (inactive) | > 100 µM (inactive) | > 100 µM (inactive) | > 100 µM (inactive) | > 100 µM (inactive) | 44.1 µM (inactive) |  | > 100 µM (inactive) | > 100 µM (inactive) |  | > 100 µM (inactive) | > 100 µM (inactive) | > 100 µM (inactive) | > 100 µM (inactive) | > 100 µM (inactive) | > 100 µM (inactive) | > 100 µM (inactive) | > 100 µM (inactive) |
| Cc1[nH]n(-c2nc(-c3ccccc3)cc(=O)[nH]2)c(=O)c1CCO | > 100 µM (inactive) | > 100 µM (inactive) | > 100 µM (inactive) | > 100 µM (inactive) | > 100 µM (inactive) | > 100 µM (inactive) | > 100 µM (inactive) |  | > 100 µM (inactive) | > 100 µM (inactive) | > 100 µM (inactive) |  | > 100 µM (inactive) | > 100 µM (inactive) | > 100 µM (inactive) | > 100 µM (inactive) | > 100 µM (inactive) | > 100 µM (inactive) | > 100 µM (inactive) | > 100 µM (inactive) |
| OC(c1cc(C(O)(C(F)(F)F)C(F)(F)F)ncn1)(C(F)(F)F)C(F)(F)F | > 10 µM (inactive) | > 10 µM (inactive) | > 10 µM (inactive) | > 10 µM (inactive) | > 10 µM (inactive) | > 10 µM (inactive) | > 10 µM (inactive) | > 10 µM (inactive) | > 10 µM (inactive) | > 10 µM (inactive) | > 10 µM (inactive) |  | > 10 µM (inactive) | > 10 µM (inactive) | > 10 µM (inactive) | > 10 µM (inactive) | > 10 µM (inactive) | > 10 µM (inactive) | > 10 µM (inactive) | > 10 µM (inactive) |
| C#CCOCC12C=CC(O1)C1C(=O)N(C)C(=O)C12 (stereo unspecified) | > 100 µM (inactive) | > 100 µM (inactive) | > 100 µM (inactive) | > 100 µM (inactive) | > 100 µM (inactive) | > 100 µM (inactive) |  | > 100 µM (inactive) |  | > 100 µM (inactive) | > 100 µM (inactive) | > 100 µM (inactive) | > 100 µM (inactive) |  | > 100 µM (inactive) | > 100 µM (inactive) | > 100 µM (inactive) | > 100 µM (inactive) | > 100 µM (inactive) | > 100 µM (inactive) |
| CCN(CC)CCC(=O)NC1c2ccc(Cl)cc2Oc2c(C)cccc21 (stereo unspecified) | 15.5 µM (inactive) | 13.2 µM (inactive) | 16.9 µM (inactive) | 17.2 µM (inactive) |  | 15.7 µM (inactive) | 18.5 µM (inactive) | 18.5 µM (inactive) |  | 14.6 µM (inactive) | 16.3 µM (inactive) | 13.9 µM (inactive) | 14.5 µM (inactive) |  | 13.4 µM (inactive) | 16.7 µM (inactive) | > 10 µM (inactive) |  | 14 µM (inactive) | 8.53 µM (inactive) |
| C/C1=C/C(=O)O[C@@H]2C[C@@H](CC[C@H](C)/C=C\C=C\CC1)O[C@@](O)([C@@H]1CSC(=O)N1)C2 [LATRUNCULIN A] | 1.03 µM (active) | 0.299 µM (active) | 1.41 µM (inactive) | 0.438 µM (active) | 0.272 µM (active) | 1.28 µM (inactive) | 3.34 µM (inactive) | 0.653 µM (active) | 5.25 µM (inactive) | 1.12 µM (inactive) | 0.773 µM (active) | 0.305 µM (active) |  | 0.114 µM (active) | 0.74 µM (active) |  | > 10 µM (inactive) | 0.313 µM (active) |  | 0.305 µM (active) |
| CCOC(=O)/C(=C\c1cn(C(C)=O)c2ccccc12)P(C)(=O)OCC (stereo unspecified) | 28.5 µM (inactive) | 52.5 µM (inactive) | 33.4 µM (inactive) | 57.3 µM (inactive) |  | 32.8 µM (inactive) | > 100 µM (inactive) | > 100 µM (inactive) | 39.8 µM (inactive) | 64.7 µM (inactive) | 26.2 µM (inactive) | 22.3 µM (inactive) |  |  | 33.3 µM (inactive) | 39.2 µM (inactive) | 40.1 µM (inactive) | 26 µM (inactive) | 37.2 µM (inactive) | 21.1 µM (inactive) |
| Cc1oc2nc(N(C)C)nc(Cl)c2c1C | > 100 µM (inactive) | > 100 µM (inactive) | > 100 µM (inactive) | > 100 µM (inactive) | 84.1 µM (inactive) |  | > 100 µM (inactive) |  | > 100 µM (inactive) | > 100 µM (inactive) | > 100 µM (inactive) | > 100 µM (inactive) |  | > 100 µM (inactive) | 34.8 µM (inactive) | > 100 µM (inactive) | > 100 µM (inactive) | > 100 µM (inactive) | 46.7 µM (inactive) | > 100 µM (inactive) |
| CN1CCN(c2cc3c(cc2F)c(=O)c(C(=O)O)cn3C2CC2)CC1CC#N (stereo unspecified) | > 100 µM (inactive) |  | > 100 µM (inactive) | > 100 µM (inactive) | > 100 µM (inactive) | > 100 µM (inactive) | > 100 µM (inactive) | > 100 µM (inactive) |  | > 100 µM (inactive) | > 100 µM (inactive) | > 100 µM (inactive) | > 100 µM (inactive) |  | > 100 µM (inactive) | > 100 µM (inactive) | > 100 µM (inactive) | > 100 µM (inactive) | > 100 µM (inactive) | > 100 µM (inactive) |
| Cc1cc(C)c(N[S+]([O-])c2cccc(C(F)(F)F)c2)c(C)c1 (stereo unspecified) | > 100 µM (inactive) | > 100 µM (inactive) | > 100 µM (inactive) | > 100 µM (inactive) | > 100 µM (inactive) | > 100 µM (inactive) | > 100 µM (inactive) | > 100 µM (inactive) |  | > 100 µM (inactive) |  | > 100 µM (inactive) |  |  |  | > 100 µM (inactive) | > 100 µM (inactive) | > 100 µM (inactive) | > 100 µM (inactive) | > 100 µM (inactive) |
| COc1ccc(O)c(/C=N/CCC/N=C/c2cc(OC)ccc2O)c1 | 6.59 µM (inactive) | 24.5 µM (inactive) | 15.7 µM (inactive) | 3.8 µM (inactive) | 27.4 µM (inactive) | 20.9 µM (inactive) | 10.9 µM (inactive) | 14 µM (inactive) | 31.6 µM (inactive) | 46.2 µM (inactive) | 40.8 µM (inactive) | 23.1 µM (inactive) |  | 24.5 µM (inactive) | 20.2 µM (inactive) | 39 µM (inactive) | 16.7 µM (inactive) | 24.7 µM (inactive) |  |  |
| CO/C(=N\N=C\c1cccc(Cl)c1)c1ccncc1 | > 10 µM (inactive) | > 10 µM (inactive) | > 10 µM (inactive) | > 10 µM (inactive) | > 10 µM (inactive) | > 10 µM (inactive) | > 10 µM (inactive) | > 10 µM (inactive) | > 10 µM (inactive) |  | > 10 µM (inactive) | > 10 µM (inactive) | > 10 µM (inactive) |  | > 10 µM (inactive) | > 10 µM (inactive) | > 10 µM (inactive) | > 10 µM (inactive) | > 10 µM (inactive) | > 10 µM (inactive) |
| CCOC(=O)C(=[N+]=[N-])C(=O)Nc1nn2nnnc2c2ccccc12 | > 100 µM (inactive) | > 100 µM (inactive) | > 100 µM (inactive) | > 100 µM (inactive) | > 100 µM (inactive) | > 100 µM (inactive) | > 100 µM (inactive) | > 100 µM (inactive) | > 100 µM (inactive) | > 100 µM (inactive) | > 100 µM (inactive) | > 100 µM (inactive) | > 100 µM (inactive) |  | > 100 µM (inactive) | > 100 µM (inactive) | > 100 µM (inactive) | > 100 µM (inactive) |  |  |
| COc1cccc2nc3ccccc3nc12 | 91 µM (inactive) | 25.5 µM (inactive) | 23.8 µM (inactive) | 43.4 µM (inactive) | 45.5 µM (inactive) | 54.7 µM (inactive) | 80.2 µM (inactive) | 44.1 µM (inactive) |  | > 100 µM (inactive) | 38.5 µM (inactive) |  | 38.8 µM (inactive) | > 100 µM (inactive) | 86.7 µM (inactive) | 45.8 µM (inactive) | 55.5 µM (inactive) | 25.3 µM (inactive) | 76 µM (inactive) | 87.9 µM (inactive) |
| Cc1cc(OCc2nn(CN3CCN(C)CC3)c(=S)n2/N=C/c2ccc(-c3ccc(Cl)cc3Cl)o2)ccc1Cl | 80 µM (inactive) | 85.3 µM (inactive) | 44 µM (inactive) | 35.3 µM (inactive) | 40.4 µM (inactive) | 39.4 µM (inactive) | 34.6 µM (inactive) |  | > 100 µM (inactive) | 33.1 µM (inactive) | > 100 µM (inactive) |  | 80.7 µM (inactive) | 39.6 µM (inactive) | > 100 µM (inactive) | 15.7 µM (inactive) | > 100 µM (inactive) | > 100 µM (inactive) | 38 µM (inactive) | 33.1 µM (inactive) |
